The values below come from article PMC11769294, “(E)-1-(3-(3-Hydroxy-4-Methoxyphenyl)-1-(3,4,5-Trimethoxyphenyl)allyl)-1H-1,2,4-Triazole and Related Compounds: Their Synthesis and Biological Evaluation as Novel Antimitotic Agents Targeting Breast Cancer” (Pharmaceuticals, 2025).

One data set addresses CYP1A1 (Homo sapiens, UniProt P04798). The data set can be described thus: Cytochrome P450 assay (DBF fluorescence).
The test system of the next data set is HL-60 cells. Put plainly: alamarBlue cell viability assay. Format: cell-based. As to conditions: Homo sapiens. On the procedure:
Figure 7 Preliminary cell viability data for (A) triazoles 22b–d, 22f, 22g and imidazole 23d and (B) triazoles 26a–e and imidazoles 27a, 27b, 27e, 27f, 27h and 27i in HL-60 cells. Cell proliferation of HL-60 cells was determined with an alamarBlue assay (seeding density 2.5 × 10^4 cells/mL per well for 96-well plates). Compound concentrations of either 1 or 0.1 μM for 72 h were used to treat the cells (in triplicate) with control wells containing vehicle ethanol (1% v/v). The mean value ± SEM for three independent experiments is shown. The positive control was CA-4 (1.0 μM and 0.1 μM).
HL-60 cells were suspension cells and the seeding density for the viability assay was 25,000 cells/mL. […]
The biochemical assays were performed in triplicate and on at least three independent occasions to facilitate the determination of mean values. […] Adherent cells such as MCF-7, MDA-MB-231, and MCF-10A were trypsinized to detach them from the flask, counted as previously described, and seeded in 96 well plates with a seeding density of 25,000 cells /mL (200 µL of suspension in each well so that the final number of cells per well was 5000) and 1 × 10^4 cells/well seeding density for suspension HL-60 cells. […] After 72 h, the change in color was measured by spectrofluorimetry at an excitation wavelength of 544 nm and emission wavelength of 590 nm. […]
Background: The colour change of resazurin is a common sign of viable cells or microbes.

Data set [1] relates to purified bovine brain tubulin. Put plainly: Tubulin polymerization assay. In kind it is biochemical. Conditions: after 60 min. How it is done:
The triazole 22b was selected for evaluation in the tubulin polymerization assay. Following the protocol previously described, the polymerization of purified bovine tubulin was monitored using a tubulin polymerization assay kit, BK006, (Cytoskeleton Inc., Denver, CO, USA). The assay was carried out using the purified bovine brain tubulin. Tubulin polymerization was determined spectrophotometrically by monitoring the change in turbidity since light is scattered proportionally to the concentration of polymerized microtubules in the assay. Lyophilized tubulin [128] (Cytoskeleton, Denver, CO, USA) (>99%, 3 mg/mL) was re-suspended in ice-cold G-PEM buffer (80 mM PIPES pH 6.9, […], 1 mM EGTA, 1 mM GTP, 10.2% (v/v) glycerol) and added to wells on a half volume 96-well plate containing the designated concentration of drug (10 or 30 μM). […] Samples were mixed well and the tubulin assembly was monitored at 340 nm at 30 s intervals for 60 min at 37 °C in a Spectramax 340PC spectrophotometer (Molecular Devices, San Jose, CA, USA).
Figure 13 Inhibition of tubulin polymerization in vitro by compound 22b. […] The progress of the tubulin polymerization reaction at 37 °C was monitored at 340 nm in a Spectramax 340PC spectrophotometer at 30 s intervals for 60 min. Fold inhibition of tubulin polymerization can be calculated from the Vmax value for each reaction. […]

Data set [2] deals with MCF-10A human mammary epithelial cells. Put plainly: Cytotoxicity in MCF-10A cells (alamarBlue). In kind it is cell-based. Conditions: 10 μM, 24 h. How it is done: Figure 9 Effect of compounds 22a (A) and 22b (B) on the cell viability of non-tumorigenic MCF-10A human mammary epithelial cells at 24, 48, and 72 h. Cells were treated with the compounds 22a and 22b at concentrations of 10 μM, 1 μM, 0.5 μM, and 0.4 μM for 24, 48, or 72 h. […] Cell viability was expressed as a percentage of vehicle control (ethanol 1% (v/v)) and was determined by an alamarBlue assay (average ± SEM of three independent experiments). Two-way ANOVA (Bonferroni post-test) was used to test for statistical significance (*, p < 0.05; **, p < 0.01; ***, p < 0.001).
HL-60 cells were suspension cells and the seeding density for the viability assay was 25,000 cells/mL. MCF-7 cells (adherent) were cultured in Minimum Essential Media (MEM) with GlutaMAX™-I, supplemented with 1% (v/v) non-essential amino acids, 10% (v/v) fetal bovine serum (FBS), purchased from BD Biosciences (Edmund Halley Road, Oxford, UK), and 1% (v/v) penicillin/streptomycin 5000 U/mL. The MCF-7 cells used in the screening of the compounds during these experiments were mycoplasma-free. The seeding density of MCF-7 in the viability assay was 25,000 cells/mL and 50,000 cells/mL in the FACS assay. Normal breast cells (MCF-10A) (adherent) were cultured in Dulbecco’s Modified Eagle Medium: Nutrient Mixture F-12 (DMEM/F12; Gibco) supplemented with 5% horse serum (Invitrogen, Waltham, MA, USA), 20 ng/mL epidermal growth factor (Merck Millipore, Burlington, MA, USA), 0.5 μg/mL hydrocortisone (Sigma, Kanagawa, Japan), 100 ng/mL cholera toxin (Sigma), 10 μg/mL insulin (Sigma), and penicillin/streptomycin 5000 U/mL (1%) (Gibco, Waltham, MA, USA). […] MDA-MB-231 cells were cultured in Dulbecco’s Modified Eagle Medium, which was supplemented with 10% (v/v) fetal bovine serum (FBS) and 1% (v/v) penicillin/streptomycin 5000 U/mL. When not in use, all cells were kept in liquid nitrogen and frozen in a freezing media made of 90% FBS and 10% DMSO. All cells were grown in an atmosphere of 5% CO2/95% air in T75 culture flasks. The media was changed every 2–3 days and media was always prewarmed to 37 °C. All were sub-cultured every 3–4 days by trypsinization using TrypLE™ Express enzyme when confluence was reached to allow growth, prevent excessive cell death, and minimize the risk of infections derived by over-confluence. For the cell viability assay, the number of cells per milliliter was 25,000 cells/mL while the FACS assay utilized 50,000 cells/mL. Cells were maintained at 37 °C in 5% CO2 in a humidified incubator.
The biochemical assays were performed in triplicate and on at least three independent occasions to facilitate the determination of mean values. For the viability assay, cells were grown until 80% confluent. Adherent cells such as MCF-7, MDA-MB-231, and MCF-10A were trypsinized to detach them from the flask, counted as previously described, and seeded in 96 well plates with a seeding density of 25,000 cells /mL (200 µL of suspension in each well so that the final number of cells per well was 5000) and 1 × 10^4 cells/well seeding density for suspension HL-60 cells. Adherent cells were incubated for 24 h after being seeded in the 96 well plate and treated on the following day, while suspension cells were treated on the same day of the seeding. In both cases, the incubation time after the treatment with the drug was 72 h. After 68 h incubation, the AlamarBlue was added (20 µL in each well) and the incubation time was completed. After 72 h, the change in color was measured by spectrofluorimetry at an excitation wavelength of 544 nm and emission wavelength of 590 nm. AlamarBlue is a cell viability indicator containing a compound called resazurin. AlamarBlue is water soluble, stable in culture media, non-toxic, and is permeable through the cell membrane. When resazurin (blue) enters the live cells, it is reduced to the fluorescent molecule resorufin (pink).

CYP1A1, sequence (P04798 whole entry): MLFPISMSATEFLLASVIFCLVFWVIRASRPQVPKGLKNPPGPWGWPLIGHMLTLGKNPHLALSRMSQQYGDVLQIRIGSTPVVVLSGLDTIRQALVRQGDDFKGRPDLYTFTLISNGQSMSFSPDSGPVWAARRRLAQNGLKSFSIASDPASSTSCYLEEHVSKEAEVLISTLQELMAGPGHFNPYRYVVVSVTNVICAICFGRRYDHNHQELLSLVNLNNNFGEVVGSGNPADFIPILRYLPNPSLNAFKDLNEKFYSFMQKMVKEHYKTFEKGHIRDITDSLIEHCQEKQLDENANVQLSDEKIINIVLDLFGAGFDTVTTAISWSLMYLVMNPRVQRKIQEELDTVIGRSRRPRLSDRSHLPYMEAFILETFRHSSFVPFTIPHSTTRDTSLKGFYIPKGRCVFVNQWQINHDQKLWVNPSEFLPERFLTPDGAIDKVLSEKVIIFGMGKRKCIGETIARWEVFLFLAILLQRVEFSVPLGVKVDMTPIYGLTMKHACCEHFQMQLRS

For orientation: IC50 means the concentration that inhibits the measured activity by half. Low values mean inhibition by little substance, high ones a need for much substance. With `COc1ccc(/C=C/C(c2cc(OC)c(OC)c(OC)c2)n2cncn2)cc1O` (stereo not drawn) [Compound 22b, (E)-5-(3-(1H-1,2,4-Triazol-1-yl)-3-(3,4,5-trimethoxyphenyl)prop-1-en-1-yl)-2-methoxyphenol], the half-inhibitory concentration (IC50) was more than 53000 nM against CYP1A1, 370 nM with HL-60 cells and 366 ± 130 nM in the data set on HL-60 cells (72 h). Moreover, the figures for the “reduction in the polymer mass vs vehicle” value in data set [1] (10 μM) and in data set [1] (30 μM) were 1.5 fold and 5 fold, respectively. Moreover, the cell death result in data set [2] is reported as “approximately 50%”.
